Structures are written as SMILES.

Data on 14 molecules can be found in patent US8574563B2 (Bristol-Myers Squibb Company, priority 2006, dated 2013).

The test system of one assay is HCV 1b-377-neo replicon cells. In words: HCV replicon assay, HCV 1b-377-neo replicon cells (1b FRET). It counts as cell-based, Hepatitis C virus genotype 1b. The following applies: HCV 1b-377-neo replicon cells; HCV 1b genotype; read-out: EC50 range against HCV 1b (Table 2, Range). A digest of the protocol:
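Compounds tested in HCV genotype 1b-377-neo replicon cells with a FRET read-out. Cells resistant to a reference NS5A inhibitor through a Y2065H NS5A mutation were run alongside wild-type cells.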
In the case of `O=C(C(c1ccccc1)N1CCC(c2ccccc2)CC1)N1CCC[C@H]1c1ncc(-c2ccc(-c3ccc(-c4c[nH]c([C@@H]5CCCN5C(=O)[C@H]5CCCO5)n4)cc3)cc2)[nH]1` (stereo partly drawn) [Example 103-2, 1-(2-oxo-1-phenyl-2-((2S)-2-(5-(4′-(2-((2S)-1-((2R)-tetrahydro-2-furanylcarbonyl)-2-pyrrolidinyl)-1H-imidazol-4-yl)-4-biphenylyl)-1H-imidazol-2-yl)-1-pyrrolidinyl)ethyl)-4-phenylpiperidine], the half-maximal effective concentration (EC50) was 0.001 to 0.999 nM.
On the same count and under the same terms, with `CN1CCN(C(C(=O)N2CCC[C@H]2c2ncc(-c3ccc(-c4ccc(-c5c[nH]c([C@@H]6CCCN6C(=O)[C@H]6CCCO6)n5)cc4)cc3)[nH]2)c2ccccc2)CC1` (stereo partly drawn) [Example 103-4, 1-methyl-4-(2-oxo-1-phenyl-2-((2S)-2-(5-(4′-(2-((2S)-1-((2R)-tetrahydro-2-furanylcarbonyl)-2-pyrrolidinyl)-1H-imidazol-4-yl)-4-biphenylyl)-1H-imidazol-2-yl)-1-pyrrolidinyl)ethyl)piperazine] the figure was 0.001 to 0.999 nM.
For `CCN(CC)[C@@H](C(=O)N1CCC[C@H]1c1ncc(-c2ccc(-c3ccc(-c4cnc([C@@H]5CCCN5C(=O)[C@@H]5CCCO5)[nH]4)cc3)cc2)[nH]1)c1ccccc1` [Example 106, (1R)-N,N-diethyl-2-oxo-1-phenyl-2-((2S)-2-(5-(4′-(2-((2S)-1-((2S)-tetrahydro-2-furanylcarbonyl)-2-pyrrolidinyl)-1H-imidazol-5-yl)-4-biphenylyI)-1H-imidazol-2-yl)-1-pyrrolidinyl)ethanamine], the half-maximal effective concentration (EC50) was in the range of 0.001 to 0.999 nM.

The same assay, now with this note: Hepatitis C virus, HCV 1b-377-neo replicon cells; HCV 1b genotype; read-out: EC50 range against HCV 1b (Table 2, Range).
Consider `COC(=O)N[C@@H](C)C(=O)N1CCC[C@H]1c1ncc(-c2ccc(-c3ccc(-c4cnc([C@@H]5CCCN5C(=O)[C@@H](c5ccccc5)N5CCCC5)[nH]4)cc3)cc2)[nH]1` [Example 101, methyl ((1S)-1-methyl-2-oxo-2-((2S)-2-(5-(4′-(2-((2S)-1-((2R)-2-phenyl-2-(1-pyrrolidinyl)acetyl)-2-pyrrolidinyl)-1H-imidazol-5-yl)-4-biphenylyl)-1H-imidazol-2-yl)-1-pyrrolidinyl)ethyl)carbamate], for which the concentration giving a half-maximal response (EC50) lay within 0.001 to 0.999 nM.
On the same count and under the same terms, with `COC(=O)NCC(=O)N1CCC[C@H]1c1ncc(-c2ccc(-c3ccc(-c4cnc([C@@H]5CCCN5C(=O)[C@@H](c5ccccc5)N5CCCC5)[nH]4)cc3)cc2)[nH]1` [Example 102, methyl (2-oxo-2-((2S)-2-(5-(4′-(2-((2S)-1-((2R)-2-phenyl-2-(1-pyrrolidinyl)acetyl)-2-pyrrolidinyl)-1H-imidazol-5-yl)-4-biphenylyl)-1H-imidazol-2-yl)-1-pyrrolidinyl)ethyl)carbamate] the figure was 0.001 to 0.999 nM; with `C[C@@H](C(=O)N1CCC[C@H]1c1ncc(-c2ccc(-c3ccc(-c4cnc([C@@H]5CCCN5C(=O)[C@@H](c5ccccc5)N5CCCC5)[nH]4)cc3)cc2)[nH]1)N(C)C` [Example 103, (2S)-N,N-dimethyl-1-oxo-1-((2S)-2-(5-(4′-(2-((2S)-1-((2R)-2-phenyl-2-(1-pyrrolidinyl)acetyl)-2-pyrrolidinyl)-1H-imidazol-5-yl)-4-biphenylyl)-1H-imidazol-2-yl)-1-pyrrolidinyl)-2-propanamine], 0.001 to 0.999 nM.
The same measure, in the same setting: with `O=C(C(c1ccccc1)N1CCC(c2ccccc2)CC1)N1CCC[C@H]1c1ncc(-c2ccc(-c3ccc(-c4c[nH]c([C@@H]5CCCN5C(=O)[C@H]5CCCO5)n4)cc3)cc2)[nH]1` (stereo partly drawn) [Example 103-1, 1-(2-oxo-1-phenyl-2-((2S)-2-(5-(4′-(2-((2S)-1-((2R)-tetrahydro-2-furanylcarbonyl)-2-pyrrolidinyl)-1H-imidazol-4-yl)-4-biphenylyl)-1H-imidazol-2-yl)-1-pyrrolidinyl)ethyl)-4-phenylpiperidine] the figure was 0.001 to 0.999 nM.
On the same count and under the same terms, with `CN1CCN(C(C(=O)N2CCC[C@H]2c2ncc(-c3ccc(-c4ccc(-c5c[nH]c([C@@H]6CCCN6C(=O)[C@H]6CCCO6)n5)cc4)cc3)[nH]2)c2ccccc2)CC1` (stereo partly drawn) [Example 103-3, 1-methyl-4-(2-oxo-1-phenyl-2-((2S)-2-(5-(4′-(2-((2S)-1-((2R)-tetrahydro-2-furanylcarbonyl)-2-pyrrolidinyl)-1H-imidazol-4-yl)-4-biphenylyl)-1H-imidazol-2-yl)-1-pyrrolidinyl)ethyl)piperazine] the figure was 0.001 to 0.999 nM; with `O=C(C(c1ccccc1)N1CCNCC1)N1CCC[C@H]1c1ncc(-c2ccc(-c3ccc(-c4c[nH]c([C@@H]5CCCN5C(=O)[C@H]5CCCO5)n4)cc3)cc2)[nH]1` (stereo partly drawn) [Example 103-7, 1-(2-oxo-1-phenyl-2-((2S)-2-(5-(4′-(2-((2S)-1-((2R)-tetrahydro-2-furanylcarbonyl)-2-pyrrolidinyl)-1H-imidazol-4-yl)-4-biphenylyl)-1H-imidazol-2-yl)-1-pyrrolidinyl)ethyl)piperazine], 0.001 to 0.999 nM.
Regarding `O=C1CN(C(C(=O)N2CCC[C@H]2c2ncc(-c3ccc(-c4ccc(-c5c[nH]c([C@@H]6CCCN6C(=O)[C@H]6CCCO6)n5)cc4)cc3)[nH]2)c2ccccc2)CCN1` (stereo partly drawn) [Example 103-8, 4-(2-oxo-1-phenyl-2-((2S)-2-(5-(4′-(2-((2S)-1-((2R)-tetrahydro-2-furanylcarbonyl)-2-pyrrolidinyl)-1H-imidazol-4-yl)-4-biphenylyl)-1H-imidazol-2-yl)-1-pyrrolidinyl)ethyl)-2-piperazinone], the half-maximal effective concentration (EC50) is 0.001 to 0.999 nM.
Still for that read-out and setting: with `CN1CCN(C(C(=O)N2CCC[C@H]2c2ncc(-c3ccc(-c4ccc(-c5cnc([C@@H]6CCCN6C(=O)[C@@H]6CCCO6)[nH]5)cc4)cc3)[nH]2)c2ccccc2)CC1` (stereo partly drawn) [Example 104, 1-methyl-4-(2-oxo-1-phenyl-2-((2S)-2-(5-(4′-(2-((2S)-1-((2S)-tetrahydro-2-furanylcarbonyl)-2-pyrrolidinyl)-1H-imidazol-5-yl)-4-biphenylyl)-1H-imidazol-2-yl)-1-pyrrolidinyl)ethyl)piperazine] the figure was 0.001 to 0.999 nM; with `O=C([C@@H]1CCCO1)N1CCC[C@H]1c1ncc(-c2ccc(-c3ccc(-c4cnc([C@@H]5CCCN5C(=O)[C@@H](c5ccccc5)N5CCOCC5)[nH]4)cc3)cc2)[nH]1` [Example 105, 4-((1R)-2-oxo-1-phenyl-2-((2S)-2-(5-(4′-(2-((2S)-1-((2S)-tetrahydro-2-furanylcarbonyl)-2-pyrrolidinyl)-1H-imidazol-5-yl)-4-biphenylyl)-1H-imidazol-2-yl)-1-pyrrolidinyl)ethyl)morpholine], 0.001 to 0.999 nM; with `CCN(C)[C@@H](C(=O)N1CCC[C@H]1c1ncc(-c2ccc(-c3ccc(-c4cnc([C@@H]5CCCN5C(=O)[C@@H]5CCCO5)[nH]4)cc3)cc2)[nH]1)c1ccccc1` [Example 107, (1R)-N-ethyl-N-methyl-2-oxo-1-phenyl-2-((2S)-2-(5-(4′-(2-((2S)-1-((2S)-tetrahydro-2-furanylcarbonyl)-2-pyrrolidinyl)-1H-imidazol-5-yl)-4-biphenylyl)-1H-imidazol-2-yl)-1-pyrrolidinyl)ethanamine], 0.001 to 0.999 nM.
Regarding `CC1(O)CCN([C@@H](C(=O)N2CCC[C@H]2c2ncc(-c3ccc(-c4ccc(-c5cnc([C@@H]6CCCN6C(=O)[C@@H](c6ccccc6)N6CCCCC6)[nH]5)cc4)cc3)[nH]2)c2ccccc2)CC1` [Example 107-2, 4-methyl-1-((1R)-2-oxo-1-phenyl-2-((2S)-2-(5-(4′-(2-((2S)-1-((2R)-2-phenyl-2-(1-piperidinyl)acetyl)-2-pyrrolidinyl)-1H-imidazol-5-yl)-4-biphenylyl)-1H-imidazol-2-yl)-1-pyrrolidinyl)ethyl)-4-piperidinol], the EC50 lay within 0.001 to 0.999 nM.
